Source: patent US9914735B2, “Heteroaryl Syk inhibitors” (Boehringer Ingelheim International GmbH, priority 2014, dated 2018)
pIC50: −log10 of the molar value. Like-named read-outs stand apart in the source and are kept apart here.

Legend:
[1] = biological target: Recombinant human Aurora B (amino acids 1-344) (Homo sapiens (Human), UniProt Q96GD4); assay: Aurora B kinase test (ADP Glo luminescence); type: biochemical; details: for IC50: read-out: IC50 in μM (AURB-Inhibition); for pIC50: Table 1, read-out: AURB-inhibition IC50-value
Recombinant human Aurora B (amino acids 1-344), sequence (Q96GD4 whole entry, the tested form may be a part): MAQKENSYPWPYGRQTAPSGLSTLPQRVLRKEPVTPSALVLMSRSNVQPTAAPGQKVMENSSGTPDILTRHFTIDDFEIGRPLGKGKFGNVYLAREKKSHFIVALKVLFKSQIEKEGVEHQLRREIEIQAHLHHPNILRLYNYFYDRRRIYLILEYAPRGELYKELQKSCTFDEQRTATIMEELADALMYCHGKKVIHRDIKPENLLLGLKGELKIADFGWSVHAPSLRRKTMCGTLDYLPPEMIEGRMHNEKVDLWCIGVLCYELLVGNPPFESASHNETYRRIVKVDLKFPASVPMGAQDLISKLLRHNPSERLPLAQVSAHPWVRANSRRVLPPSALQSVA

[2] = Human liver microsomal stability test; type: in vitro ADME; details: human liver microsomes
Description: The metabolic degradation for a specific SYK-inhibitor is performed at 37° C. with pooled human liver microsomes (human liver microsomes are commercially available as “BD UltraPool™” by Corning Life Sciences, Fogostraat 12, 1060 LJ Amsterdam, The Netherlands). The final incubation volume of 100 μl per time point contains TRIS buffer pH 7.6 at RT (0.1 M), magnesium chloride (5 mM), microsomal protein (1 mg/ml) and the test compound at a final concentration of 1 μM.
Following a short preincubation period at 37° C., the reaction is initiated by addition of beta-nicotinamide adenine dinucleotide phosphate in its reduced form (NADPH, 1 mM) and terminated by transfering an aliquot into solvent after different time points. Additionally, the NADPH-independent degradation is monitored in incubations without NADPH, terminated at the last time point.
The quenched (terminated) incubations are then pelleted by centrifugation (10000 g, 5 min).
An aliquot of the supernatant is assayed by LC-MS/MS for the remaining amount of parent compound. The half-life (t1/2 INVITRO) is determined by the slope of the semilogarithmic plot of the concentration-time profile.
The intrinsic clearance (CL_[…]) is calculated by considering the amount of protein in the incubation: CL_[…][μl/min/mg protein]=(Ln 2/(t1/2 INVITRO[min]*protein content[mg/ml]))*1000
The protein content [mg/ml] was determined with the “Bicinchoninic Acid Kit” of Sigma Aldrich (commercially available).
The upscaled intrinsic Clearance (CL_UP_INT) is calculated by considering the liver weight [g liver/kg body weight] and the microsomal recovery [mg protein/g liver]: CL_UP_INT[ml/min/kg]=0.001*CL_[…]*liver weight*microsomal recovery • with microsomal recovery=45 mg protein/g liver • with liver weight=25.7 g liver/kg body weight
The percent hepatic blood flow (% Qh) is finally calculated by considering the human liver blood flow Q [ml/min/kg]: % Qh[%]=((Q*CL_UP_INT)/(Q+CL_UP_INT)/Q)*100 • with liver blood flow (Q)=20.7 ml/min/kg.

[3] = biological target: Recombinant human Syk (amino acids 342-635), GST-Syk kinase fusion protein (Homo sapiens (Human), UniProt P43405); assay: Syk kinase test (Kinase Glo luminescence); type: biochemical; details: for IC50: read-out: IC50 in μM (SYK-Inhibition); for pIC50: Table 1, read-out: SYK-inhibition IC50-value
Human GSK3beta = Human GSK3beta (Homo sapiens (Human), UniProt P49841); assay: GSK 3beta kinase test (Z'-LYTE); type: biochemical; details: read-out: IC50 in μM (GSK3beta-Inhibition)
Human GSK3beta, sequence (P49841 whole entry): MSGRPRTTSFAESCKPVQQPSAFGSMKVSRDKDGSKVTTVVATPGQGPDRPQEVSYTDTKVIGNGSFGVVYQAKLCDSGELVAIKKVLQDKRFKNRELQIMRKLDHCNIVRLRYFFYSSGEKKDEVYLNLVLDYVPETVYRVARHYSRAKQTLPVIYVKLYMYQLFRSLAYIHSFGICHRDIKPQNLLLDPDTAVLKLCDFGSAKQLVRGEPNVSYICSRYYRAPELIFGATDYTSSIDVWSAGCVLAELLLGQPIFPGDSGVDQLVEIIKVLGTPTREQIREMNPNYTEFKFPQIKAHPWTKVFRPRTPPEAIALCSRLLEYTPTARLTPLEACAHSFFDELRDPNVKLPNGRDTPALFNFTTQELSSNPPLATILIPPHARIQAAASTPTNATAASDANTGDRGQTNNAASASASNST
Description: Human GSK3beta (expressed and prified from SF21 cells) is obtained from the University Dundee/Scotland (Dr. James Hastie—Dept. of Biochemistry) in 50 mM Tris (pH7.5); 150 mM NaCl; 0.1 mM EGTA, 270 mM Succrose, 0.1% β-mercaptoethanol, 1 mM benzamidine, 0.2 mM PMSF; sequence see below). The enzyme is diluted to 3.56 μM (168 μg/ml) in enzyme dilution buffer and 6 μl aliquots are stored at −80° C.
The activity of GSK3 kinase protein is measured using the Z′-LYTETM assay technology from Invitrogen (# PV3324).
The assay is performed in 384 black plates from Corning (#3676) in a final volume of 10 μl by adding 5 μl of kinase peptide mix and 2.5 μl of compound dilution. The reaction is started by addition of 2.5 μl of the 4×ATP solution.
Positive controls are reaction mixtures containing no test compound; negative controls (blanks) are reaction mixtures containing no ATP. As a further control, the phosphopeptide solution is added to wells without kinase and without ATP (=100% phosphorylation control).
The non inhibited kinase reaction will result in a phosphorylation corresponding to 20%-30% of the phosphorylation control.
The reaction is performed 1 h at room temperature. After 1h 5 μl of the development solution is added. After a further incubation for 1 h at room temperature 5 μl of the stop reagent is added. Finally the plates are read on a Flex Station II 384 (Molecular Devices).
The output text file is evaluated in an “MS-Excel—VB-Makro” and “GraphPadPrism” (Version 5) (GraphPad Software Inc.) is used to calculate the results. Data for the inhibition of GSK3beta are reported in M. data for the inhibition of the protease are reported in % CTL.

FLT3 = FLT3 (Homo sapiens (Human), UniProt P36888); assay: FLT3 kinase test (Z'-LYTE); type: biochemical; details: for IC50: read-out: IC50 in μM (FLT3-Inhibition); for pIC50: Table 1, read-out: FLT3-inhibition IC50-value
FLT3, sequence (P36888 27-993): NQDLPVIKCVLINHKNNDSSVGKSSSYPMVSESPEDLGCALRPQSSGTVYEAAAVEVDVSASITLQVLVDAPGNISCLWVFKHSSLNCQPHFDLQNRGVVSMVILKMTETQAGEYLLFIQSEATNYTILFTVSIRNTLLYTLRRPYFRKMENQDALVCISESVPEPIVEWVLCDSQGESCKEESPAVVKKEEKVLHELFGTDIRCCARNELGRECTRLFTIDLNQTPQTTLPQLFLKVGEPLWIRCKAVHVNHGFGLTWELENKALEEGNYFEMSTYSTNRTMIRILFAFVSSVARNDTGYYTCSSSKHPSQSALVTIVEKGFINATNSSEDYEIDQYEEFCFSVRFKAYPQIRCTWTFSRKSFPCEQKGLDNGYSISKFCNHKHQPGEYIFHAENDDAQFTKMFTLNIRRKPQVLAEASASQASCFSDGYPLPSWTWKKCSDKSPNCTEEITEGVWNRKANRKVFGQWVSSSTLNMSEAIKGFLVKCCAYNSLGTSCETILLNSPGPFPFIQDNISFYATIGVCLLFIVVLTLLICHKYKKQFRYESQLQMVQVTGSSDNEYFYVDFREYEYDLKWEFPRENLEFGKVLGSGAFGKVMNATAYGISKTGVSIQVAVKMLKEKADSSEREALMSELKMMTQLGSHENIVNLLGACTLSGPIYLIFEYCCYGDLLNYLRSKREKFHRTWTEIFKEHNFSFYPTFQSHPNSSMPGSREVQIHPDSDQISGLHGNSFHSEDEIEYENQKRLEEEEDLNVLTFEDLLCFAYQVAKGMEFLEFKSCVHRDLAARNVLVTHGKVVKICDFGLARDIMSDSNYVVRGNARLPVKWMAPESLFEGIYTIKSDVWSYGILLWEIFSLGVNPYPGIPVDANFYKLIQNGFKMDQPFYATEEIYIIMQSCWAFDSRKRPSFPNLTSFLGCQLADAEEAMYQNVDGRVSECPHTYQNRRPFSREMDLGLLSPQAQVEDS
How it was run: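 Z'-LYTE FRET format; kinase reaction started with ATP, run 1 h at room temperature, then 1 h development before stop reagent. Controls without compound, without kinase, and phosphopeptide as 100% phosphorylation reference; values reported in M.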

| SMILES | IC50 [1] | microsomal stability Cl [% Qh] ([2]; Qh = liver blood flow) | IC50 [3] | IC50 (Human GSK3beta) | IC50 (FLT3) | pIC50 [1] | pIC50 [3] | pIC50 (FLT3) | IC50 ([1]; Table 2a) | microsomal stability Cl [% Qh] ([2]; test compound 1 μM, Table 2a) | IC50 ([3]; Table 2a) | IC50 (Human GSK3beta; Table 2a) | IC50 (FLT3; Table 2a) |
| --- | --- | --- | --- | --- | --- | --- | --- | --- | --- | --- | --- | --- | --- |
| COc1cc(-c2cc(O[C@H](C)[C@H]3CNC(=O)C3)c3cccnc3c2)ccc1C(F)(F)F [102 of WO 2013/014060] | 2.63 µM | 54 % Qh | 0.013 µM | > 10 µM | 2.27 µM | – | – | – | – | – | – | – | – |
| Cc1nc2cc(-c3cc(O[C@H](C)[C@H]4CNC(=O)C4)c4cccnc4c3)ccc2n1C [105 of WO 2013/014060] | 0.479 µM | 64 % Qh | 0.001 µM | > 10 µM | 0.309 µM | – | – | – | – | – | – | – | – |
| Cc1nc(C)c2cc(-c3cc(O[C@H](C)[C@H]4CNC(=O)C4)c4cccnc4c3)ccc2n1 [107 of WO 2013/014060] | 1.82 µM | 38 % Qh | 0.009 µM | > 10 µM | 1.76 µM | – | – | – | – | – | – | – | – |
| Cc1nc2cc(-c3cc(O[C@H](C)[C@H]4CNC(=O)C4)c4cccnc4c3)ccc2[nH]1 [109 of WO 2013/014060] | 0.26 µM | 41 % Qh | 0.001 µM | > 10 µM | 0.33 µM | – | – | – | – | – | – | – | – |
| COc1ccc(-c2cc3nn(C)cc3c(O[C@H](C)[C@H]3CNC(=O)C3)n2)cc1OC [Example 1, (4R)-4-[(1R)-1-[6-(3,4-Dimethoxyphenyl)-2-methyl-pyrazolo[4,3-c]pyridin-4-yl]oxyethyl]pyrrolidin-2-one] | > 50 µM | <23 % Qh | 0.016 µM | > 10 µM | 3.99 µM | < 4.30 | 7.80 | 5.40 | – | – | – | – | – |
| C[C@@H](Oc1nc(-c2cnn(C(C)(C)C)c2)cc2nn(C)cc12)[C@H]1CNC(=O)C1 [Example 2, (4R)-4-[(1R)-1-[6-(1-tert-Butylpyrazol-4-yl)-2-methyl-pyrazolo[4,3-c]pyridin-4-yl]oxyethyl]pyrrolidin-2-one] | – | – | – | – | – | < 4.30 | 7.84 | 4.83 | > 50 µM | <23 % Qh | 0.0144 µM | > 10 µM | 14.8 µM |
| C[C@@H](Oc1cc(-c2cnn(C(C)(C)C)c2)cc2nn(C)cc12)[C@H]1CNC(=O)C1 [Example 18, (4R)-4-[(1R)-1-[6-(1-tert-butylpyrazol-4-yl)-2-methyl-indazol-4-yl]oxyethyl]pyrrolidin-2-one] | – | – | – | – | – | < 4.30 | 8.34 | 4.87 | > 50 µM | <23 % Qh | 0.0046 µM | > 10 µM | 13.4 µM |
| C[C@@H](Oc1cc(-c2ccc(N3CCN(C)CC3)cc2)cc2nn(C)cc12)[C@H]1CNC(=O)C1 [Example 26, (4R)-4-[(1R)-1-[2-methyl-6-[4-(4-methylpiperazin-1-yl)phenyl]indazol-4-yl]oxyethyl]pyrrolidin-2-one] | > 50 µM | <23 % Qh | 0.0258 µM | > 10 µM | 0.95 µM | < 4.30 | 7.59 | 6.02 | – | – | – | – | – |
| CC(C)Oc1ccc(-c2cc(O[C@H](C)[C@H]3CNC(=O)C3)c3cn(C)nc3c2)cn1 [Example 27, (4R)-4-[(1R)-1-[6-(6-isopropoxy-3-pyridyl)-2-methyl-indazol-4-yl]oxyethyl]pyrrolidin-2-one] | > 50 µM | <23 % Qh | 0.138 µM | > 10 µM | 26.6 µM | < 4.30 | 6.86 | 4.57 | – | – | – | – | – |
| C[C@@H](Oc1cc(-c2ccc3c(cnn3C)c2)cc2nn(C)cc12)[C@H]1CNC(=O)C1 [Example 28, (4R)-4-[(1R)-1-[2-methyl-6-(1-methylindazol-5-yl)indazol-4-yl]oxyethyl]pyrrolidin-2-one] | > 50 µM | <23 % Qh | 0.0335 µM | > 10 µM | 3.69 µM | < 4.30 | 7.47 | 5.43 | – | – | – | – | – |
| C[C@@H](Oc1cc(-c2ccc3c(c2)c(N)nn3C)cc2nn(C)cc12)[C@H]1CNC(=O)C1 [Example 36, (4R)-4-[(1R)-1-[6-(3-amino-1-methyl-indazol-5-yl)-2-methyl-indazol-4-yl]oxyethyl]pyrrolidin-2-one] | 35.2 µM | <23 % Qh | 0.0172 µM | > 10 µM | 2.39 µM | 4.45 | 7.76 | 5.62 | – | – | – | – | – |
| C[C@@H](Oc1cc(-c2ccc(F)cn2)cc2nn(C)cc12)[C@H]1CNC(=O)C1 [Example 41, (4R)-4-[(1R)-1-[6-(5-fluoro-2-pyridyl)-2-methyl-indazol-4-yl]oxyethyl]pyrrolidin-2-one] | > 50 µM | <23 % Qh | 0.164 µM | > 10 µM | 42.8 µM | < 4.30 | 6.79 | 4.37 | – | – | – | – | – |
| C[C@@H](Oc1cc(-c2ccc(C3CCN(C)CC3)cc2)cc2nn(C)cc12)[C@H]1CNC(=O)C1 [Example 42, (4R)-4-[(1R)-1-[2-methyl-6-[4-(1-methyl-4-piperidyl)-phenyl]indazol-4-yl]oxyethyl]-pyrrolidin-2-one] | > 50 µM | <23 % Qh | 0.0167 µM | > 10 µM | 0.55 µM | < 4.30 | 7.78 | 6.26 | – | – | – | – | – |
| C[C@@H](Oc1nc(-c2ccc(C(F)F)nc2)cc2nn(C)cc12)[C@H]1CNC(=O)C1 [Example 51, (4R)-4-[(1R)-1-[6-[6-(difluoromethyl)-3-pyridyl]-2-methyl-pyrazolo[4,3-c]pyridin-4-yl]oxyethyl]pyrrolidin-2-one] | 49.8 µM | <23 % Qh | 0.366 µM | > 10 µM | 20.9 µM | 4.30 | 6.44 | 4.68 | – | – | – | – | – |
| COc1cc(-c2cc3nn(C)cc3c(O[C@H](C)[C@H]3CNC(=O)C3)n2)cc(OC)c1OC [Example 52, (4R)-4-[(1R)-1-[2-methyl-6-(3,4,5-trimethoxyphenyl)-pyrazolo[4,3-c]pyridin-4-yl]oxyethyl]pyrrolidin-2-one] | > 50 µM | <23 % Qh | 0.0413 µM | > 10 µM | > 50 µM | < 4.30 | 7.38 | < 4.30 | – | – | – | – | – |
